This note sets out measurements from patent US20040127518A1, “Modulation of anxiety through blockade of anandamide hydrolysis” (priority 2002, published 2004).

Read-outs that look alike come from different tables or passages of the source.

In data set [1] the test system is panel of 21 receptors, ion channels and neurotransmitter transporters. The data set is described as follows: Panel of 21 receptors, ion channels and neurotransmitter transporters. The data set is classed as binding. The conditions noted are these: 10 μM; data not shown.
For the next data set, the system named is rat cortical neurons. The data set is described as follows: Transport, accumulation and release of non-metabolized [3H]anandamide in cortical neurons. The data set is classed as cell-based.
Another data set can be described thus: Elevated zero maze test. The data set is classed as in vivo, rat. Conditions: adult rats; i.p. 30 min before test; UCM532 5 and 10 mg kg-1; UCM597 0.05-0.1 mg kg-1. Here is the method: (§1) We dissolved FAAH inhibitors and rimonabant in dimethylsulfoxide (DMSO)/saline (7/3 and 9/1, respectively); we administered FAAH inhibitors by i.p. injection 30 min before tests and rimonabant 30 min before UCM532. The elevated zero maze was comprised of a black Perspex annular platform (105 cm diameter, 10 cm width) elevated to 65 cm above ground level, divided equally into four quadrants (Bickerdike, M. J. et al., Eur. J. Pharmacol., 271, 403-411 (1994); Shepherd, J. K. et al., Psychopharmacology, 116, 56-64 (1994)). […] We placed the rats in a closed quadrant and video recorded them for 5-min periods, thoroughly cleaning the maze between sessions. […] Results are expressed as percent time in open quadrant/total time (percent time open). Results were analyzed by one-way ANOVA followed by Tukey's test. We recorded motor activity of each rat in an Opto-Varimex cage (Columbus Instruments, Columbus, Ohio) linked on-line to a computer and placed in a sound-attenuated room illuminated by a 20-W white light. The amount of time spent in ambulatory activity was analyzed using an Auto-Track software (Columbus Instruments, Columbus, Ohio) as described elsewhere (Ali, M. M. et al., Neurosci. Lett., 284, 57-60 (2000); Wedzony, K. et al., Neuropsychopharmacology, 23, 547-559 (2000)). […] We analyzed data by overall one-way ANOVA followed by Tukey's test for individual between-group comparisons. […]

Data set [2] is described as follows: Motor activity (Opto-Varimex cage). The format is in vivo, rat. The procedure: as §1
For data set [3], the target named is electric eel acetylcholinesterase (Electrophorus electricus, UniProt O42275). The data set is described as follows: biochemical.
From the text: We prepared cell fractions from rat brain homogenates, and assayed membrane FAAH activity and cytosol MGL activity using anandamide [ethanolamine-3H] (American Radiolabeled Chemicals, ARC (St. Louis Mo.), 60 Ci/mmol) and 2-mono-oleoyl-glycerol-[glycerol-1,2,3^−3H] (ARC, St. Louis Mo., 20 Ci/mmol), respectively, as substrates (Dinh, T. Proc. Natl. Acad. Sci. U.S.A. (2002)). We conducted [^3H]anandamide transport assays in human astrocytoma cells (Piomelli, D. et al., Proc. Natl. Acad. Sci. U.S.A., 96, 5802-5807 (1999)); CB1 and CB2 binding assays in rat cerebellar membranes and CB2-overexpressing Chinese hamster ovary cells (Receptor Biology-Perkin Elmer, Wellesley, Mass.), respectively, using [^3H]WIN-55212-2 (NEN-Dupont, Boston, Mass., 40-60 Ci/mmol) as a ligand (Devane, W. A. et al. Science, 258, 1946-1949 (1992)); cholinesterase assays with a commercial kit (Sigma, St. Louis, Mo.), using purified enzymes (electric eel acetylcholinesterase type V-S and horse serum cholinesterase; both from Sigma, St. Louis, Mo.) and following manufacturer's instructions.
Another data set addresses T1, FAAH (Rattus norvegicus, UniProt P97612).
T1 sequence (P97612 1-579): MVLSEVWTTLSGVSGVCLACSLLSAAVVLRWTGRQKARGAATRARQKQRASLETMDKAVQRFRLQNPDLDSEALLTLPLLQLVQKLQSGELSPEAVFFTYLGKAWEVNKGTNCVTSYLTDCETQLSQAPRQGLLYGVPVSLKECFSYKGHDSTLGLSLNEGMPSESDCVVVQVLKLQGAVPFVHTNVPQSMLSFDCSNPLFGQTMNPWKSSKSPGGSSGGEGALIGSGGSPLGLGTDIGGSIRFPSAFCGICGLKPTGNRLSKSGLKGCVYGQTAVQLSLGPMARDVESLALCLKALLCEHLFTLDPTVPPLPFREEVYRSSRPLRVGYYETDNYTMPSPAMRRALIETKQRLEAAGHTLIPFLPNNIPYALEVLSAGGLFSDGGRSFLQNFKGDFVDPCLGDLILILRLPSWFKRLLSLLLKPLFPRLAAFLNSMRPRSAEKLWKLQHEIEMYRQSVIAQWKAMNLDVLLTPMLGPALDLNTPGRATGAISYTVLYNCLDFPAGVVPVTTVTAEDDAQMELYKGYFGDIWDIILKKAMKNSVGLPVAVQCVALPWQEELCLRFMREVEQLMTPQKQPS
The data set is described as follows: biochemical. The data set is classed as biochemical. On the set-up: from tissue; host or cells: rat brain (membrane fraction of homogenate; Wistar rats).

In general, IC50 refers to the concentration needed to halve the response being measured.

Chain of electric eel acetylcholinesterase (O42275 whole entry): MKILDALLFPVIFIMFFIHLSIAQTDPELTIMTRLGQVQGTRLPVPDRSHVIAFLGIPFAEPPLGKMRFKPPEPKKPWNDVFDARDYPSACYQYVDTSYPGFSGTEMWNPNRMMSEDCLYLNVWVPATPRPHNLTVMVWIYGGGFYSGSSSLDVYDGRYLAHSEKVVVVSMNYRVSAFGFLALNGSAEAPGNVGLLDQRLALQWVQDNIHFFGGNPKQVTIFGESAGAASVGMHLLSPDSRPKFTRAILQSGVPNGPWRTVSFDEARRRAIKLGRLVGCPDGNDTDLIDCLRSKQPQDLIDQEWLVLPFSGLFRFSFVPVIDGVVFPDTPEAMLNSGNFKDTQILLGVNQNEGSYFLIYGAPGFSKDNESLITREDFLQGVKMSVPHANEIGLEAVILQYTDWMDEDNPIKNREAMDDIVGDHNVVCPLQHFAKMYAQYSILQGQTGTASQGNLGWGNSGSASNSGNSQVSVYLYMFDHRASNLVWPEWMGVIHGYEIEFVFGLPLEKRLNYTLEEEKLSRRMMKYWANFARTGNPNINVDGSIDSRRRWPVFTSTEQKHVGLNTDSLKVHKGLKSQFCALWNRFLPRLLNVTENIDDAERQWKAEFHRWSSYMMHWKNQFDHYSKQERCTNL

With `CCCCNC(=O)Oc1ccc(OCc2ccccc2)cc1` [UCM532, n-Butylcarbamic acid 4-benzyloxyphenyl ester], in data set [1], the “interaction with panel of 21 receptors, ion channels and transporters” value is “did not significantly interact”. In the data set on rat cortical neurons (4-min incubation, UCM532 3 μM, UCM597 10 nM, AM404 10 μM), the “accumulation of non-metabolized [3H]anandamide in neurons” value is reported as “promote accumulation”. Also, in the data set on rat cortical neurons (rat cortical neurons), the “carrier-mediated uptake of [3H]anandamide” value was “without reducing”. Besides, the “percent time open, elevated zero maze” value in “Elevated zero maze test” was “anxiolytic-like responses”. The ambulation time result in data set [2] (adult rats, 20 min session, ≧10 mg kg-1) is reported as “modest decrease”. Also, in data set [2] (rat pups, 5 mg kg-1, data not shown), the pup movement result is recorded as “no effect”. The IC50 is greater than 30000 nM in data set [3]; 400 nM on FAAH (Table 3, read-out: Amidohydrolase IC50); 300 nM at FAAH (Table 4, FAAH IC50, read-out: Inhibition of Amidohydrolase IC50); 396 ± 63 nM at FAAH (rat brain membranes, read-out: IC50). Further, at FAAH (data not shown), the “mode of FAAH inhibition (kinetic analyses and dialysis experiments)” value is reported as “irreversible interaction”.
